Tests used:
Mus musculus = assay: Oral bioavailability in mouse; type: ADME, organism-based; conditions: in vivo
[1] = Metabolic stability of the compound in simulated gastric fluid; type: physicochemical; conditions: simulated gi fluid
Nucleic Acid = assay: (§1) Ratio of drug level in brain to plasma in mouse; type: ADME, organism-based; conditions: brain
[2] = as §1; type: ADME, organism-based; conditions: brain and plasma, read-out: BPR

In the case of `COc1cc(/C=N/NC(=O)C(OC)c2ccc(N3CCOCC3)cc2)cc(OC)c1Br` (racemic), the F (Mus musculus) is reported as 63%, the Stability [1] is reported as “Stable” and the BPR (Nucleic Acid) is reported as 0.37.

In the case of `COc1cc(/C=N/NC(=O)C(OC)c2ccc(-n3cccn3)cc2)cc(OC)c1Br` (stereo in doubt; 61), the F (Mus musculus) is reported as 92%, the Stability [1] is reported as “Stable” and the BPR (Nucleic Acid) is reported as 0.12.

For `COc1cc(/C=N/NC(=O)C(OC)c2ccc(N3CCOCC3)cc2)cc(OC)c1Br` (single isomer, unassigned; enantiomer 1), the F (Mus musculus) was 91% and the Kp [2] was 0.27.

With `COc1cc(/C=N/NC(=O)C(OC)c2ccc(-n3cccn3)cc2)cc(OC)c1Br` (racemic) the F (Mus musculus) was 48% and the BPR (Nucleic Acid) was 0.39.
